Data as given in patent US20170304329A1 (THE UNIVERSITY OF KANSAS, priority 2014, published 2017).
Counter-ions that a name gives are not always drawn. Like-named read-outs stand apart in the source and are kept apart here.

Legend:
[1] = Study 208-02: plasma CPX pharmacokinetics after IV and oral CPX-O and CPX-POM; assay type: in vivo, male C57/Bl6 mice; conditions: mice; following oral and IV administration
Text: Study 208-02. Bioavailability of Ciclopirox Following Oral and Intravenous Administration of Ciclopirox-POM Prodrug in the Mouse. […] The objectives of this study were to characterize the rate and extent of CPX-POM metabolism and assess the feasibility of orally administered ciclopirox-POM prodrug in support of future cancer proof of principle studies.

[2] = Study 11206: urine CPX and CPX-G pharmacokinetics after single and repeated IP CPX-POM; assay type: in vivo, male C57/Bl6 mice; conditions: mice; IP 50, 100, and 200 mg/kg
Description: Urine ciclopirox (CPX) pharmacokinetics were characterized in mice following single (Day 1) and repeat (Day 10) dose (once daily for ten consecutive days) administration of 50, 100, and 200 mg/kg ciclopirox-POM prodrug (CPX-POM) to three separate groups of six mice each, are summarized in Table 3B below. […] Following single and repeat dose IP administration of 50, 100, and 200 mg/kg CPX-POM, less than 1% of the dose was excreted as CPX over 24 hours. Despite the low percent dose recovery as ciclopirox, however, urine CPX concentrations exceeded the in vitro IC50 value of 2 μM by several-fold across the entire dose range.

[3] = Study 10954: plasma CPX pharmacokinetics after IV CPX-POM and CPX-O; assay type: in vivo, male Sprague-Dawley rats; conditions: rats
Text: (§1) Study 10954. Bioavailability of Ciclopirox Following Intravenous Administration of Ciclopirox-POM Prodrug in the Rat. […] Given the low oral bioavailability of CPX observed in the mouse following administration of CPX-O and CPX-POM, this route of administration was not investigated in this study.

[4] = Study 10954: urine CPX and CPX-G pharmacokinetics after IV CPX-POM and CPX-O; assay type: in vivo, male Sprague-Dawley rats; conditions: rats; 10 mg/kg IV
Text: as §1

[5] = Study 11428: plasma CPX pharmacokinetics after IV CPX-POM, SQ CPX-POM and oral CPX-O; assay type: in vivo, male Sprague-Dawley rats; conditions: rats; 20 mg/kg IV and 30 mg/kg SQ
Description: (§6) Intravenous CPX-POM was used as the reference in characterizing the bioavailability of ciclopirox following SQ ciclopirox-POM prodrug in this specie.

[6] = Study 10953: plasma CPX pharmacokinetics after IV CPX-POM and CPX-O; assay type: in vivo, male beagle dogs; conditions: dogs
Description: (§2) Study 10953. Bioavailability of Ciclopirox Following Intravenous Administration of Ciclopirox-POM Prodrug in the Dog. […] Given the low oral bioavailability of CPX observed in the mouse following administration of CPX-O and CPX-POM, this route of administration was not investigated in this study.
FIG. 14 illustrates the mean plasma CPX concentration-time profiles following administration of 3 mg/kg IV CPX-POM and CPX-O to four male beagle dogs.

[7] = Study 10953: urine CPX pharmacokinetics after IV CPX-POM and CPX-O; assay type: in vivo, male beagle dogs; conditions: dogs; 3 mg/kg IV
Text: as §2

[8] = Study 11429: plasma CPX pharmacokinetics after IV CPX-POM, SQ CPX-POM and oral CPX-O; assay type: in vivo, male beagle dogs; conditions: dogs; 3 mg/kg IV and 9 mg/kg SQ
Description: as §6

253JBV cells = experiment: Cell proliferation, hexosaminidase assay; assay type: cell-based, human; conditions: Homo sapiens, 48 h
Description: (§3) To determine the effect of CPX on bladder cancer cell proliferation in T24 (MIBC) and 253-JBV (NMIBC) cells, 5,000 cells per well were seeded on to 96-well plates and grown overnight. The cells were then treated with increasing doses of CPX in RPMI media containing 10% FBS. Analysis of cell proliferation after the treatment period was estimated by the hexosaminidase assay. Briefly, the medium was removed and hexosaminidase substrate solution in citrate buffer pH 5 (7.5 mM), p-nitrophenol-N-acetyl-beta-D-glucosaminidase (Sigma Aldrich) was added at 75 μL per well. The plate was incubated at 37° C. in 100% humidity for 30 minutes. The reaction was stopped with 112.5 μL of 50 mM glycine containing 5 mM of EDTA (pH 10.4). The absorbance was measured at 405 nm. Experiments were conducted at n=6, and then repeated at least three times. The data were analyzed as percent of control, where the control wells were treated with equivalent amounts of DMSO alone. For IC50 calculations, a plot between the drug concentration and hexosaminidase activity was generated and the data was fitted either linearly or exponentially. The best fit was used for further processing of data.
(§4) We determined and compared the effect of CPX with CPX-POM and CPX-glucuronide in vitro by performing proliferation assay. To determine the effect of CPX, CPX-POM and CPX-glucuronide on bladder cancer cell proliferation in T24 (MIBC) and 253-JBV (NMIBC) cells, 5,000 cells per well were seeded on to 96-well plates and grown overnight. The cells were then treated with increasing doses of CPX, CPX-POM and CPX-glucuronide in RPMI media containing 10% FBS. Analysis of cell proliferation after the treatment period was estimated by the hexosaminidase assay. Briefly, the medium was removed and hexosaminidase substrate solution in citrate buffer pH 5 (7.5 mM), p-nitrophenol-N-acetyl-beta-D-glucosaminidase (Sigma Aldrich) was added at 75 μL per well. The plate was incubated at 37° C. in 100% humidity for 30 minutes. The reaction was stopped with 112.5 μL of 50 mM glycine containing 5 mM of EDTA (pH 10.4). The absorbance was measured at 405 nm.
(§5) Experiments were conducted at n=6, and then repeated at least three times. The data were analyzed as percent of control, where the control wells were treated with equivalent amounts of DMSO alone. For IC50 so calculations, a plot between the drug concentration and hexosaminidase activity was generated and the data was fitted either linearly or exponentially.

T24 cells = experiment: Cell proliferation, hexosaminidase assay; assay type: cell-based, human; conditions: Homo sapiens, T-24, 48 h, 48 h
Description: as §3, §4, §5

[9] = test system: BBN induced bladder tumors; experiment: BBN induced bladder tumor model; assay type: in vivo, mouse
Text: There were no significant differences in bladder weights between the two CPX-POM treatment groups. […] There is a strong correlation between CPX-POM treatment and tumor stage. […] Hematoxylin and Eosin stained bladder tissue sections of BBN alone group animals show a very high frequency of T3 stage tumors.

[10] = test system: proliferating cell nuclear antigen (PCNA) in T24 cells; experiment: Western blot of PCNA; assay type: cell-based, human
Text: CPX-POM inhibits proliferating cell nuclear antigen (PCNA) both in vitro and in vivo. […] Also, studies show a positive correlation between notch intracellular pathway and PCNA.

Aqueous solubility = assay type: physicochemical
[11] = mice
Description: The plasma and urine pharmacokinetics of ciclopirox (CPX) were characterized in the mouse following 10 mg/kg IV and 50 mg/kg IP administration of ciclopirox-POM prodrug (CPX-POM). […] In addition, we characterized the urinary excretion of CPX and ciclopirox glucuronide (CPX-G) to describe urinary tract exposure to CPX following IP administration of CPX-POM. Two treatment groups of 30 C57BL/6 mice each were treated with CPX-POM. Prior to and over six hours post-dose, three animals were sacrificed at each selected plasma sampling time point. Blood (plasma) was collected by cardiac puncture for bioanalysis. Plasma was pooled at each time point. In addition, two groups of six mice each were administered 10 mg/kg IV and 50 mg/kg IP CPX-POM to characterize urine pharmacokinetics. Mice were placed in metabolism cages with urine collected over 24 hours post-dose (0-8 hour and 8-24 hour urine collection intervals). As with plasma, urine samples collected from six animals were pooled for bioanalysis.

[12] = rats; 20 mg/kg IV and 30 mg/kg SQ
[13] = dogs; 3 mg/kg IV and 9 mg/kg SQ
[14] = Series of pharmacokinetic studies (summary); conditions: following IV administration in mice, rats, and dogs

## Cc1cc(C2CCCCC2)n(OCOP(=O)(O)O)c(=O)c1 [CPX-POM, phosphate disodium salt]
[1]
  prodrug in plasma: not detected in plasma
[2]
  CPX-POM in urine: not detected in any urine samples
[3]; 10 mg/kg IV bolus
  CPX-POM in plasma: failed to detect CPX-POM in the majority of samples collected
[3]; 10 mg/kg IV, IC50 2 μM (414 ng/mL)
  Cmax relative to in vitro IC50: approximately twenty-fold greater than the IC50
[4]
  CPX-POM in urine: not detected in any urine samples collected
[5]
  CPX-POM in blood or urine: not detected in any blood or urine sample
[6]; 3 mg/kg IV bolus
  CPX-POM in plasma: not detected in the majority of plasma samples assayed
[6]; 3 mg/kg IV, IC50 2 μM (414 ng/mL)
  mean Cmax relative to in vitro IC50: approximately seven-fold greater than the IC50
[7]
  CPX-POM in urine: not detected in any urine sample
[8]
  CPX-POM in blood or urine: not detected in any blood or urine sample
253JBV cells
  IC50: 48 µM
T24 cells
  IC50: ≥ 45 µM
[9]; H&E stained bladder tissue sections, vs BBN alone
  tumor stage: significant reduction in the stage T3 frequency
[9]; bladder tissue
  Notch downstream target proteins: significantly reduced the Notch downstream target proteins such as Cyclin D1 and c-Myc
[9]; bladder tissue, both treatment groups
  Notch1 signaling and γ-secretase complex proteins in vivo: significantly reduced Notch1 activation
[9]; bladder tumor tissues
  PCNA level in vivo: reduced the level of PCNA in vivo
[9]; four weeks once daily IP 100 mg/kg and 200 mg/kg, vs controls
  bladder weights (measure of tumor volume): significantly lower (p=0.013)
[10]
  PCNA level: time dependent decrease in the level of PCNA
Aqueous solubility
  aqueous solubility: improve the aqueous solubility of ciclopirox
[11]; 10 mg/kg IV and 50 mg/kg IP single doses
  tolerability: well tolerated
[11]; 50 mg/kg IP, IC50 2 μM (414 ng/mL)
  CPX Cmax relative to in vitro IC50: five-fold greater than the IC50
[11]; following either treatment (10 mg/kg IV, 50 mg/kg IP)
  CPX-POM in plasma (BQL): < 25 ng/mL
[12]
  tolerability: well tolerated
[13]
  tolerability: well tolerated
[14]
  prodrug in plasma and urine: not detected in plasma nor urine
